# Measurements from PubChem BioAssay AID248 (DTP/NCI, 2004).
# Where “and” joins values, the source holds several entries; their conditions need not be identical. Identical values can stand only once. Inconclusive results and toxic doses are left out.
# Tested on: L1210 leukemia ip in BDF1 mice, survival T/C
# Assay: NCI In Vivo Anticancer Drug Screen. Data for tumor model L1210 Leukemia (intraperitoneal) in B6D2F1 (BDF1) mice
# Conditions: endpoint: mean survival time, higher = longer survival
# Summary of the method: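 Mice bearing the transplanted tumor received compound or vehicle. Survival of the treated group was divided by that of the vehicle-treated control group to give the ratio.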
# [1] = dose: 100.0 mg/kg/injection, schedule: Q01DX001 (ip), vehicle: saline
# [2] = dose: 200.0 mg/kg/injection, schedule: Q01DX001 (ip), vehicle: saline
# [3] = dose: 100.0 mg/kg/injection, schedule: Q04DX003 (ip), vehicle: Klucel (hydroxypropylcellulose) (HPC)
# [4] = dose: 200.0 mg/kg/injection, schedule: Q04DX003 (ip), vehicle: Klucel (hydroxypropylcellulose) (HPC)
# [5] = dose: 400.0 mg/kg/injection, schedule: Q04DX003 (ip), vehicle: Klucel (hydroxypropylcellulose) (HPC)
compound,measurement,setting,value
[N-]=[N+]=CC(=O)CCC(N)C(=O)O (configuration not stated),T/C,"dose: 0.01 mg/kg/injection, schedule: Q01DX015 (ip), vehicle: water",101 % of control
same,T/C,"dose: 0.03 mg/kg/injection, schedule: Q01DX015 (ip), vehicle: water",118 % of control
same,T/C,"dose: 0.05 mg/kg/injection, schedule: Q01DX009 (ip), vehicle: saline",118 % of control
same,T/C,"dose: 0.06 mg/kg/injection, schedule: Q01DX009 (oral), vehicle: saline",114 % of control
same,T/C,"dose: 0.1 mg/kg/injection, schedule: Q01DX015 (ip), vehicle: other",168 % of control
same,T/C,"dose: 0.1 mg/kg/injection, schedule: Q01DX015 (ip), vehicle: water",154 % of control
same,T/C,"dose: 0.2 mg/kg/injection, schedule: Q01DX009 (ip), vehicle: saline",120 % of control
same,T/C,"dose: 0.2 mg/kg/injection, schedule: Q01DX009 (oral), vehicle: saline",150 % of control
same,T/C,"dose: 0.2 mg/kg/injection, schedule: Q01DX015 (ip), vehicle: other",210 % of control
same,T/C,"dose: 0.2 mg/kg/injection, schedule: Q01DX015 (ip), vehicle: water",156 % of control
same,T/C,"dose: 0.25 mg/kg/injection, schedule: Q01DX009 (oral), vehicle: saline",164 % of control
same,T/C,"dose: 0.39 mg/kg/injection, schedule: Q03HX016 (ip), vehicle: saline",150 % of control
same,T/C,"dose: 0.39 mg/kg/injection, schedule: Q03HX024 (ip), vehicle: saline",184 % of control
same,T/C,"dose: 0.4 mg/kg/injection, schedule: Q01DX009 (ip), vehicle: saline",104 % of control
same,T/C,"dose: 0.4 mg/kg/injection, schedule: Q01DX015 (ip), vehicle: water",218 % of control
same,T/C,"dose: 0.4 mg/kg/injection, schedule: Q02DX005 (oral), vehicle: saline",162 % of control
same,T/C,"dose: 0.6 mg/kg/injection, schedule: Q01DX015 (ip), vehicle: water",168 % of control
same,T/C,"dose: 0.63 mg/kg/injection, schedule: Q02DX008 (ip), vehicle: water",156 % of control
same,T/C,"dose: 0.78 mg/kg/injection, schedule: Q03HX016 (ip), vehicle: saline",165 % of control
same,T/C,"dose: 0.78 mg/kg/injection, schedule: Q03HX024 (ip), vehicle: saline",194 % of control
same,T/C,"dose: 0.8 mg/kg/injection, schedule: Q02DX005 (oral), vehicle: saline",150 % of control
same,T/C,"dose: 1.25 mg/kg/injection, schedule: Q02DX008 (ip), vehicle: water",180 % of control
same,T/C,"dose: 1.25 mg/kg/injection, schedule: Q02DX008 (oral), vehicle: water",162 % of control
same,T/C,"dose: 1.56 mg/kg/injection, schedule: Q03HX016 (ip), vehicle: saline",160 % of control
same,T/C,"dose: 1.56 mg/kg/injection, schedule: Q03HX024 (ip), vehicle: saline",174 % of control
same,T/C,"dose: 1.6 mg/kg/injection, schedule: Q02DX005 (oral), vehicle: saline",167 % of control
same,T/C,"dose: 2.5 mg/kg/injection, schedule: Q02DX008 (ip), vehicle: other",187 % of control
same,T/C,"dose: 2.5 mg/kg/injection, schedule: Q02DX008 (oral), vehicle: other",156 % of control
same,T/C,"dose: 2.5 mg/kg/injection, schedule: Q02DX008 (oral), vehicle: water",205 % of control
same,T/C,"dose: 3.12 mg/kg/injection, schedule: Q03HX024 (ip), vehicle: saline",90 % of control
same,T/C,"dose: 3.12 mg/kg/injection, schedule: Q04DX003 (ip), vehicle: saline",150 % of control
same,T/C,"dose: 3.2 mg/kg/injection, schedule: Q02DX005 (oral), vehicle: saline",153 % of control
same,T/C,"dose: 5.0 mg/kg/injection, schedule: Q02DX008 (ip), vehicle: other",216 % of control
same,T/C,"dose: 5.0 mg/kg/injection, schedule: Q02DX008 (oral), vehicle: other",169 % of control
same,T/C,"dose: 6.25 mg/kg/injection, schedule: Q04DX003 (ip), vehicle: saline",170 % of control
same,T/C,"dose: 6.4 mg/kg/injection, schedule: Q02DX005 (oral), vehicle: saline",179 % of control
same,T/C,"dose: 10.0 mg/kg/injection, schedule: Q02DX008 (oral), vehicle: other",205 % of control
same,T/C,"dose: 12.5 mg/kg/injection, schedule: Q04DX003 (ip), vehicle: saline",181 % of control
same,T/C,"dose: 12.5 mg/kg/injection, schedule: Q08DX002 (ip), vehicle: saline",150 % of control
same,T/C,"dose: 12.8 mg/kg/injection, schedule: Q02DX005 (oral), vehicle: saline",185 % of control
same,T/C,"dose: 15.0 mg/kg/injection, schedule: Q02DX008 (ip), vehicle: other",104 % of control
same,T/C,"dose: 15.0 mg/kg/injection, schedule: Q02DX008 (oral), vehicle: other",184 % of control
same,T/C,"dose: 20.0 mg/kg/injection, schedule: Q02DX008 (oral), vehicle: other",197 % of control
same,T/C,"dose: 25.0 mg/kg/injection, schedule: Q01DX001 (ip), vehicle: water",123 % of control
same,T/C,"dose: 25.0 mg/kg/injection, schedule: Q08DX002 (ip), vehicle: saline",151 % of control
same,T/C,"dose: 25.0 mg/kg/injection, schedule: Q## X003 (ip), vehicle: saline",167 % of control
same,T/C,"dose: 26.0 mg/kg/injection, schedule: Q02DX005 (oral), vehicle: saline",187 % of control
same,T/C,"dose: 50.0 mg/kg/injection, schedule: Q## X002 (ip), vehicle: saline",165 % of control
same,T/C,"dose: 50.0 mg/kg/injection, schedule: Q## X016 (ip), vehicle: saline",98 % of control
same,T/C,[1],156 % of control
same,T/C,"dose: 100.0 mg/kg/injection, schedule: Q## X002 (ip), vehicle: saline",168 % of control
same,T/C,"dose: 100.0 mg/kg/injection, schedule: Q## X003 (ip), vehicle: saline",92 % of control
same,T/C,"dose: 150.0 mg/kg/injection, schedule: Q01DX001 (ip), vehicle: water",159 % of control
same,T/C,[2],110 % of control
same,T/C,"dose: 200.0 mg/kg/injection, schedule: Q01DX001 (ip), vehicle: water",151 % of control
same,T/C,"dose: 200.0 mg/kg/injection, schedule: Q## X002 (ip), vehicle: saline",97 % of control
same,T/C,"dose: 400.0 mg/kg/injection, schedule: Q## X002 (ip), vehicle: saline",89 % of control
same,T/C,"dose: 25.0 micrograms/kg/injection, schedule: Q01DX010 (ip), vehicle: saline",98 % of control
same,T/C,"dose: 50.0 micrograms/kg/injection, schedule: Q01DX010 (ip), vehicle: saline",112 % of control
O=[N+]([O-])c1ccc(N/N=C/c2ccccc2)cc1,T/C,"dose: 15.0 mg/kg/injection, schedule: Q01DX Z (ip), vehicle: carboxymethylcellulose (CMC)",91 % of control
same,T/C,"dose: 30.0 mg/kg/injection, schedule: Q01DX Z (ip), vehicle: carboxymethylcellulose (CMC)",100 % of control
same,T/C,"dose: 60.0 mg/kg/injection, schedule: Q01DX Z (ip), vehicle: carboxymethylcellulose (CMC)",94 % of control and 100 % of control
same,T/C,"dose: 120.0 mg/kg/injection, schedule: Q01DX Z (ip), vehicle: carboxymethylcellulose (CMC)",94 % of control and 97 % of control
same,T/C,"dose: 240.0 mg/kg/injection, schedule: Q01DX Z (ip), vehicle: carboxymethylcellulose (CMC)",97 % of control
same,T/C,"dose: 480.0 mg/kg/injection, schedule: Q01DX Z (ip), vehicle: carboxymethylcellulose (CMC)",100 % of control
Clc1ccc(C(c2ccc(Cl)cc2)C(Cl)Cl)cc1,T/C,[3],98 % of control
same,T/C,[4],98 % of control
same,T/C,[5],98 % of control
NC(=NCc1ccccc1)c1ccc(NC(=O)c2ccc(C(=O)Nc3ccc(C(N)=NCc4ccccc4)cc3)cc2)cc1,T/C,"dose: 7.0 mg/kg/injection, schedule: Q01DX Z (ip), vehicle: water",113 % of control
N#CC1C(=O)NC(=O)C(C#N)C12CCCC(C(F)(F)F)C2 (configuration not stated),T/C,"dose: 50.0 mg/kg/injection, schedule: Q01DX001 (ip), vehicle: saline",104 % of control
same,T/C,[1],98 % of control
same,T/C,[2],106 % of control
same,T/C,"dose: 400.0 mg/kg/injection, schedule: Q01DX001 (ip), vehicle: saline",98 % of control
Nc1ccc(NC(=O)c2ccc3ccccc3c2O)c(Cl)c1,T/C,[3],94 % of control
same,T/C,[4],97 % of control
same,T/C,[5],94 % of control
NC(=O)N1C(=O)CC(Sc2ccc(Cl)cc2)C1=O (configuration not stated),T/C,"dose: 100.0 mg/kg/injection, schedule: Q01DX001 (ip), vehicle: carboxymethylcellulose (CMC)",97 % of control
same,T/C,"dose: 200.0 mg/kg/injection, schedule: Q01DX001 (ip), vehicle: carboxymethylcellulose (CMC)",100 % of control
same,T/C,"dose: 400.0 mg/kg/injection, schedule: Q01DX001 (ip), vehicle: carboxymethylcellulose (CMC)",105 % of control
O=C1C(n2ccc(=O)[nH]c2=O)CCN1CCO (configuration not stated),T/C,"dose: 100.0 mg/kg/injection, schedule: Q01DX009 (ip), vehicle: saline",105 % of control
same,T/C,"dose: 200.0 mg/kg/injection, schedule: Q01DX009 (ip), vehicle: saline",100 % of control
same,T/C,"dose: 400.0 mg/kg/injection, schedule: Q01DX009 (ip), vehicle: saline",97 % of control
